Legend:
[1] = Dose Through Unit (DTU) dose uniformity of MDI; assay type: physicochemical; settings: for overall mean dose of medicament delivered through the actuator, combining beginning and end of use doses / overall mean dose delivered through the actuator, combined beginning and end of use: HFA 134a; for overall mean dose delivered through the actuator, combining beginning and end of use: Example 4: Compound A in combination with Compound D, HFA-134a MDI 100/100 μg/act, target output compound D 90 μg, compound A 90 μg; for overall mean dose delivered through the actuator, combined beginning and end of use: Example 5: Compound E in combination with Compound A, MDI 100/50 μg/act, target output Compound E 90 μg, Compound A 45 μg
Procedure: The dose collection apparatus (500 ml separatory funnel with a cotton plug) was assembled and the flow rate was set to 20 L/min. Test units were stored at ambient conditions for two weeks after manufacture prior to DTU testing. For the testing at the beginning of the unit, the MDIs were primed two times with a priming actuator and four times to waste with the test actuator, shaking the units between each actuation. Two test actuations were collected in the dose collection apparatus, shaking the unit between actuations. The collection apparatus was rinsed with an appropriate volume of diluent, and the rinsate with the collected dose was analyzed by conventional HPLC analysis. For end of unit testing, the MDIs were actuated an additional 48 times to waste, shaking between each actuation. The MDIs were then actuated four times to waste through a new test actuator. Two test actuations were then collected in the dose collection apparatus, shaking the unit between actuations. The collection apparatus was rinsed with an appropriate volume of diluent, and the rinsate with the collected dose was analyzed by conventional HPLC analysis.
The reported results are the average of ten units at both the beginning and end of unit use.

[2] = Andersen Cascade Impactor (ACI) fine particle fraction of MDI; assay type: physicochemical; settings: for Fine Particle Fraction (FPF) expressed as percentage of 25 μg, the total dose target: Example 1: Compound A MDI, 25 μg/act; for Fine Particle Fraction (FPF) expressed as percentage of 25 μg, the total dose target / Fine Particle Fraction expressed as a percentage of the total dose target, for Compound B, 10 μg and for the Compound A, 25 μg / Fine Particle Fraction (FPF) expressed as a percentage of the total dose target, for Compound C, 12.5 μg and for Compound A, 25 μg / Fine Particle Fraction (FPF) expressed as percentage of the total dose target of Compound E, 100 μg and for Compound A, 50 μg: HFA 134a; for Fine Particle Fraction expressed as a percentage of the total dose target, for Compound B, 10 μg and for the Compound A, 25 μg: Example 2: Compound A in combination with Compound B; for Fine Particle Fraction expressed as a percentage of the total dose target, for Compound B, 10 μg and for the Compound A, 25 μg / Fine Particle Fraction (FPF) expressed as a percentage of the total dose target, for Compound C, 12.5 μg and for Compound A, 25 μg: MDI; for Fine Particle Fraction (FPF) expressed as a percentage of the total dose target, for Compound C, 12.5 μg and for Compound A, 25 μg: Example 3: Compound A in combination with Compound C, 25/12.5 μg/act; for Fine Particle Fraction (FPF) expressed as a percentage of the total dose target, for Compound D, 100 μg, and for Compound A, 100 μg: Example 4: Compound A in combination with Compound D, HFA-134a MDI 100/100 μg/act; for Fine Particle Fraction (FPF) expressed as percentage of the total dose target of Compound E, 100 μg and for Compound A, 50 μg: Example 5: Compound E in combination with Compound A, MDI 100/50 μg/act
Text: The fine particle fraction of the aerosol formulations according to the invention may be measured by conventional techniques, for example, by cascade impaction by measuring particle size distribution. The Cascade Impactor is designed to mimic the human buccal cavity and bronchial tract and the cascade Impactor test is designed to reveal the amount of deposition of inhaled drug substance at various stages thereof. As used herein reference to the “cascade impaction” assay means determination of the deposition of the emitted dose in pressurised inhalations as defined in European Pharmacopoeia, Section 2.9.18, 5th edition “Preparations for Inhalation, Apparatus D”. Such techniques enable the “respirable fraction” of the aerosol formulations to be calculated. One method used to calculate the “respirable fraction” is by reference to “fine particle fraction” which is the amount of active ingredient collected in stages 3 to 5 (aerodynamic diameter 1.1-4.7 μm) which represents the lung, per actuation expressed as a percentage of the total amount of active ingredient delivered per actuation using the cascade impactor method described above. Earlier stages represent the aerosol device itself, the throat and the upper reaches of the bronchial tract, and the later stages representing potential systemic absorption through the wall of the lung which may cause serious side effects.
The Andersen Cascade Impactor Mark II (ACI) was assembled and the flow rate was set to 28.3 L/min. The units were primed four times with the test actuator prior to dose collection, shaking between actuations. Between 5 and 20 actuations were collected in the ACI assembly. The ACI was disassembled and the components were rinsed with an appropriate amount of solvent that ensures dissolution of all formulation ingredients. The rinsate was collected for analysis by conventional HPLC analysis.

[3] = 0.1% w/w of polymer of formula (II), 12 Week at 40° C./75% relative humidity
[4] = 0.1% w/w of polymer of formula (II), Initial
[5] = surfactant-free, 12 Week at 40° C./75% relative humidity

overall mean dose of medicament delivered through the actuator, combining beginning and end of use doses ([1]; Example 1: Compound A MDI, 25 μg/act, 0.1% w/w of polymer of formula (II), 12 Week at 40° C./75% relative humidity, target output 22.5 μg/act): 98%
overall mean dose of medicament delivered through the actuator, combining beginning and end of use doses ([1]; Example 1: Compound A MDI, 25 μg/act, 0.1% w/w of polymer of formula (II), Initial, target output 22.5 μg/act): 98%
overall mean dose of medicament delivered through the actuator, combining beginning and end of use doses ([1]; Example 1: Compound A MDI, 25 μg/act, surfactant-free, 12 Week at 40° C./75% relative humidity, target output 22.5 μg/act): 72%
overall mean dose of medicament delivered through the actuator, combining beginning and end of use doses ([1]; Example 1: Compound A MDI, 25 μg/act, surfactant-free, Initial, target output 22.5 μg/act): 66%
overall mean dose of medicament delivered through the actuator, combining beginning and end of use doses ([1]; Example 2: Compound A in combination with Compound B, MDI, 25/10 μg/act, 0.1% w/w of polymer of formula (II), 12 Week at 40° C./75% relative humidity, target output Compound B 8.5 μg, Compound A 22.5 μg): 110%
overall mean dose of medicament delivered through the actuator, combining beginning and end of use doses ([1]; Example 2: Compound A in combination with Compound B, MDI, 25/10 μg/act, 0.1% w/w of polymer of formula (II), Initial, target output Compound B 8.5 μg, Compound A 22.5 μg): 107%
overall mean dose of medicament delivered through the actuator, combining beginning and end of use doses ([1]; Example 2: Compound A in combination with Compound B, MDI, 25/10 μg/act, surfactant-free, 12 Week at 40° C./75% relative humidity, target output Compound B 8.5 μg, Compound A 22.5 μg): 62%
overall mean dose of medicament delivered through the actuator, combining beginning and end of use doses ([1]; Example 2: Compound A in combination with Compound B, MDI, 25/10 μg/act, surfactant-free, Initial, target output Compound B 8.5 μg, Compound A 22.5 μg): 63%
overall mean dose of medicament delivered through the actuator, combining beginning and end of use doses ([1]; Example 3: Compound A in combination with Compound C, MDI, 25/12.5 μg/act, 0.1% w/w polymer of formula (II), 12 Week at 40° C./75 relative humidity, target output Compound C 11.3 μg, Compound A 22.5 μg): 107%
overall mean dose of medicament delivered through the actuator, combining beginning and end of use doses ([1]; Example 3: Compound A in combination with Compound C, MDI, 25/12.5 μg/act, 0.1% w/w polymer of formula (II), Initial, target output Compound C 11.3 μg, Compound A 22.5 μg): 101%
overall mean dose of medicament delivered through the actuator, combining beginning and end of use doses ([1]; Example 3: Compound A in combination with Compound C, MDI, 25/12.5 μg/act, surfactant-free, 12 Week at 40° C./75 relative humidity, target output Compound C 11.3 μg, Compound A 22.5 μg): 76%
overall mean dose of medicament delivered through the actuator, combining beginning and end of use doses ([1]; Example 3: Compound A in combination with Compound C, MDI, 25/12.5 μg/act, surfactant-free, Initial, target output Compound C 11.3 μg, Compound A 22.5 μg): 75%
overall mean dose delivered through the actuator, combining beginning and end of use [1, 3]: 111%
overall mean dose delivered through the actuator, combining beginning and end of use [1, 4]: 106%
overall mean dose delivered through the actuator, combined beginning and end of use [1, 3]: 109%
overall mean dose delivered through the actuator, combined beginning and end of use [1, 4]: 104%
Fine Particle Fraction (FPF) expressed as percentage of 25 μg, the total dose target [2, 3]: 22%
Fine Particle Fraction (FPF) expressed as percentage of 25 μg, the total dose target [2, 4]: 24%
Fine Particle Fraction (FPF) expressed as percentage of 25 μg, the total dose target [2, 5]: 16%
Fine Particle Fraction (FPF) expressed as percentage of 25 μg, the total dose target ([2]; surfactant-free, Initial): 17%
Fine Particle Fraction expressed as a percentage of the total dose target, for Compound B, 10 μg and for the Compound A, 25 μg [2, 3]: 35%
Fine Particle Fraction expressed as a percentage of the total dose target, for Compound B, 10 μg and for the Compound A, 25 μg [2, 4]: 32%
Fine Particle Fraction expressed as a percentage of the total dose target, for Compound B, 10 μg and for the Compound A, 25 μg [2, 5]: 18%
Fine Particle Fraction expressed as a percentage of the total dose target, for Compound B, 10 μg and for the Compound A, 25 μg ([2]; surfactant-free, Initial): 18%
Fine Particle Fraction (FPF) expressed as a percentage of the total dose target, for Compound C, 12.5 μg and for Compound A, 25 μg ([2]; 0.1% w/w polymer of formula (II), 12 Week 40° C./75 relative humidity): 20%
Fine Particle Fraction (FPF) expressed as a percentage of the total dose target, for Compound C, 12.5 μg and for Compound A, 25 μg ([2]; 0.1% w/w polymer of formula (II), Initial): 21%
Fine Particle Fraction (FPF) expressed as a percentage of the total dose target, for Compound C, 12.5 μg and for Compound A, 25 μg ([2]; surfactant-free, 12 Week 40° C./75 relative humidity): 16%
Fine Particle Fraction (FPF) expressed as a percentage of the total dose target, for Compound C, 12.5 μg and for Compound A, 25 μg ([2]; surfactant-free, Initial): 11%
Fine Particle Fraction (FPF) expressed as a percentage of the total dose target, for Compound D, 100 μg, and for Compound A, 100 μg [2, 3]: 19%
Fine Particle Fraction (FPF) expressed as a percentage of the total dose target, for Compound D, 100 μg, and for Compound A, 100 μg [2, 4]: 21%
Fine Particle Fraction (FPF) expressed as percentage of the total dose target of Compound E, 100 μg and for Compound A, 50 μg [2, 3]: 22%
Fine Particle Fraction (FPF) expressed as percentage of the total dose target of Compound E, 100 μg and for Compound A, 50 μg [2, 4]: 23%
SMILES: C[C@@H]1C[C@H]2[C@@H]3C[C@H](F)C4=CC(=O)C=C[C@]4(C)[C@@]3(F)[C@@H](O)C[C@]2(C)[C@@]1(OC(=O)c1ccco1)C(=O)SCF [Compound A, 6α, 9α-Difluoro-17α-[(2-furanylcarbonyl)oxy]-11β-hydroxy-16α-methyl-3-oxo-androsta-1,4-diene-17β-carbothioic acid S-fluoromethyl ester]
